Each structure is given as a SMILES string. pIC50: −log10 of the molar value.

The experiment concerns the target Gamma-secretase. Put plainly: Inhibition of gamma secretase expressed in SH-SY5Y cells. It counts as cell-based, Homo sapiens.
In the case of `COC(=O)/C=C/C[C@H]1CCC[C@](c2cc(F)ccc2F)(S(=O)(=O)c2ccc(Cl)cc2)C1` (relative stereo), the pIC50 is 6.68.
The figure for `O=C[C@H]1CCC[C@](c2cc(F)ccc2F)(S(=O)(=O)c2ccc(Cl)cc2)C1` (relative stereo) is 7.26.
Compound `COC(=O)CCC[C@@H]1CCC[C@](c2cc(F)ccc2F)(S(=O)(=O)c2ccc(Cl)cc2)C1` (relative stereo) had a pIC50 of 8.52.
The figure for `O=S(=O)(c1ccc(Cl)cc1)[C@@]1(c2cc(F)ccc2F)CCC[C@H](CCCO)C1` (relative stereo) is 6.95.
Consider `C=CC[C@@H]1CCC[C@](c2cc(F)ccc2F)(S(=O)(=O)c2ccc(Cl)cc2)C1` (relative stereo), for which the pIC50 is 7.36.
`O=C[C@@H]1CCC[C@](c2cc(F)ccc2F)(S(=O)(=O)c2ccc(Cl)cc2)C1` (relative stereo) had a pIC50 of 7.11.
As for `COC(=O)CCC[C@@]1(C)CCC[C@](c2cc(F)ccc2F)(S(=O)(=O)c2ccc(Cl)cc2)C1` (relative stereo), the pIC50 was 5.79.
The figure for `COC(=O)CCC[C@]1(C)CCC[C@](c2cc(F)ccc2F)(S(=O)(=O)c2ccc(Cl)cc2)C1` (relative stereo) is 8.00; for `COC(=O)CCC[C@H]1CCC[C@](c2cc(F)ccc2F)(S(=O)(=O)c2ccc(Cl)cc2)C1` (relative stereo) it is 6.42; for `COC(=O)/C=C/C[C@@H]1CCC[C@](c2cc(F)ccc2F)(S(=O)(=O)c2ccc(Cl)cc2)C1` (relative stereo) it is 8.00.
The figure for `O=C(O)CC[C@H]1CCC[C@](c2cc(F)ccc2F)(S(=O)(=O)c2ccc(Cl)cc2)C1` (relative stereo) is 6.42; for `O=S(=O)(c1ccc(Cl)cc1)[C@@]1(c2cc(F)ccc2F)CCC[C@@H](CCCO)C1` (relative stereo) it is 8.10.
In turn, `C=CC[C@H]1CCC[C@](c2cc(F)ccc2F)(S(=O)(=O)c2ccc(Cl)cc2)C1` gave a pIC50 of 7.07.
With `O=C(O)CC[C@@H]1CCC[C@](c2cc(F)ccc2F)(S(=O)(=O)c2ccc(Cl)cc2)C1` (relative stereo) the figure was 7.62.

(Values after ChEMBL document CHEMBL1138944, “3-Substituted gem-cyclohexane sulfone based gamma-secretase inhibitors for Alzheimer's disease: conformational analysis and biological activity” (Bioorg Med Chem Lett, 2006).)
